Our source for the EC50 values is patent publication US8735398B2 (Bristol-Myers Squibb Company, priority 2009, dated 2014).

In this assay the test system is HCV 1b genotype. The assay is described as follows: HCV replicon assay (HCV-neo replicon cells, wild-type). The format is cell-based, Hepatitis C virus. To be noted: HCV 1b genotype replicon. How it is done:
An HCV Replicon assay was utilized in the present disclosure, and was prepared, conducted and validated as described in commonly owned PCT/US2006/022197 and in O'Boyle et al., Antimicrob. Agents Chemother, 49(4):1346-1353 (April 2005). Assay methods incorporating luciferase reporters have also been used as described (Apath.com).
HCV-neo replicon cells and replicon cells containing resistance substitutions in the NS5A region were used to test the currently described family of compounds.
The compounds were determined to have differing degrees of reduced inhibitory activity on cells containing mutations vs. the corresponding inhibitory potency against wild-type cells. Thus, the compounds of the present disclosure can be effective in inhibiting the function of the HCV NS5A protein and are understood to be as effective in combinations as previously described in application PCT/US2006/022197 and commonly owned WO 04/014852. It should be understood that the compounds of the present disclosure can inhibit multiple genotypes of HCV. […] In one embodiment, compounds of the present disclosure are inhibitory versus 1a, 1b, 2a, 2b, 3a, 4a, and 5a genotypes.
A general note: A replicon is a self-replicating genome or part of one, used to study replication in cells.

Setting [1] is: Hepatitis C virus, class symbol, read-out: EC50 Range against HCV 1b.
[2] abbreviates: class symbols, read-out: EC50 Range against HCV 1b.
Setting [3] is: Hepatitis C virus, class symbols, read-out: EC50 Range against HCV 1b.
Where [4] appears, read: Hepatitis C virus, read-out: EC50 1b.

Read-outs that look alike come from different tables or passages of the source.

Consider `CO[C@H]1C[C@@H](C(=O)Nc2ccc(-c3cnc(-c4ccc(NC(=O)[C@@H]5C[C@H](OC)CN5C(=O)[C@@H](c5ccccc5)N(C)C)cc4)o3)cc2)N(C(=O)[C@@H](c2ccccc2)N(C)C)C1` [OL-59, (2S,4S,2′S,4′S)-N,N′-(1,3-oxazole-2,5-diyldi-4,1-phenylene)bis(1-((2R)-2-(dimethylamino)-2-phenylacetyl)-4-methoxy-2-pyrrolidinecarboxamide)], for which, under setting [1], the EC50 is below 4.57 nM.

In the case of `CC(C)n1c(=O)n(CC(=O)N2CCC[C@H]2C(=O)Nc2ccc(-c3cnc(-c4ccc(NC(=O)[C@@H]5CCCN5C(=O)Cn5c(=O)n(C(C)C)c6cc(F)c(F)cc65)cc4)o3)cc2)c2cc(F)c(F)cc21` [Example D-9, (2S,2′S)-N,N′-(4,4′-(oxazole-2,5-diyl)bis(4,1-phenylene))bis(1-(2-(5,6-difluoro-3-isopropyl-2-oxo-2,3-dihydro-1H-benzo[d]imidazol-1-yl)acetyl)pyrrolidine-2-carboxamide)], the EC50 is 1000 to 10000 nM (class symbol, read-out: EC50 Range against HCV 1b) and 3330 nM (read-out: EC50 1b).

For `C[C@H](NC(=O)[C@@H]1CCCO1)C(=O)Nc1ccc(-c2nnc(-c3ccc(NC(=O)[C@H](C)NC(=O)[C@@H]4CCCO4)cc3)o2)cc1` [RK-34, (2S,2′S)-N,N′-(1,3,4-oxadiazole-2,5-diylbis(4,1-phenyleneimino((2S)-1-oxo-1,2-propanediyl)))ditetrahydro-2-furancarboxamide], the EC50 under setting [2] lay in the range of 1000 to 10000 nM.

Regarding `CC(C)(C)O[C@@H]1C[C@@H](C(=O)Nc2ccc(-c3cnc(-c4ccc(NC(=O)[C@@H]5C[C@@H](OC(C)(C)C)CN5C(=O)C5CC5)cc4)o3)cc2)N(C(=O)C2CC2)C1` [XY-74, (2S,4R,2′S,4′R)-N,N′-(1,3-oxazole-2,5-diyldi-4,1-phenylene)bis(4-tert-butoxy-1-(cyclopropylcarbonyl)-2-pyrrolidinecarboxamide)], under setting [3], the EC50 is 100 to 999 nM.

For `O=C(Nc1ccc(-c2cc(-c3ccc(NC(=O)[C@@H]4CCCN4C(=O)c4nc5ccccc5s4)cc3)[nH]n2)cc1)[C@@H]1CCCN1C(=O)c1nc2ccccc2s1` [JG-41, (2S,2′S)-N,N′-(1H-pyrazole-3,5-diyldi-4,1-phenylene)bis(1-(1,3-benzothiazol-2-ylcarbonyl)-2-pyrrolidinecarboxamide)], under setting [1], the EC50 was in the range of 100 to 999 nM.

Consider `Cc1cccc(CC(=O)N2C[C@H](OC(C)(C)C)C[C@H]2C(=O)Nc2ccc(-c3cnc(-c4ccc(NC(=O)[C@@H]5C[C@@H](OC(C)(C)C)CN5C(=O)Cc5cccc(C)c5)cc4)o3)cc2)c1` [XY-69, (2S,4R,2′S,4′R)-N,N′-(1,3-oxazole-2,5-diyldi-4,1-phenylene)bis(4-tert-butoxy-1-((3-methylphenyl)acetyl)-2-pyrrolidinecarboxamide)], for which the EC50 under setting [3] was 100 to 999 nM.

Regarding `O=C(Nc1ccc(-c2cnc(-c3ccc(NC(=O)[C@@H]4CCCN4C(=O)C(O)C(F)(F)F)cc3)o2)cc1)[C@@H]1CCCN1C(=O)C(O)C(F)(F)F` (stereo partly drawn) [JR-2, (2S,2′S)-N,N′-(2,5-oxazolediyldi-4,1-phenylene)bis[1-(3,3,3-trifluoro-2-hydroxy-1-oxopropyl)-2-pyrrolidinecarboxamide]], under setting [3], the concentration giving a half-maximal response (EC50) lay in the range of 100 to 999 nM.

Consider `O=C(Nc1ccc(-c2cc(-c3ccc(NC(=O)[C@@H]4CCCN4C(=O)C4CC4)cc3)[nH]n2)cc1)[C@@H]1CCCN1C(=O)C1CC1` [OL-35, (2S,2′S)-N,N′-(1H-pyrazole-3,5-diyldi-4,1-phenylene)bis(1-(cyclopropylcarbonyl)-2-pyrrolidinecarboxamide)], for which the EC50 by setting is: under setting [1], 1000 to 10000 nM; under setting [4], 8250 nM.

On to `C[C@H](NC(=O)c1cccc(Cl)n1)C(=O)Nc1ccc(-c2nnc(-c3ccc(NC(=O)[C@H](C)NC(=O)c4cccc(Cl)n4)cc3)o2)cc1` [RK-20, N,N′-(1,3,4-oxadiazole-2,5-diylbis(4,1-phenyleneimino((2S)-1-oxo-1,2-propanediyl)))bis(6-chloro-2-pyridinecarboxamide)], for which the EC50 under setting [1] lay in the range of 1000 to 10000 nM.

Take `CCn1c(=O)n(C(C)C(=O)N2CCC[C@H]2C(=O)Nc2ccc(-c3cnc(-c4ccc(NC(=O)[C@@H]5CCCN5C(=O)C(C)n5c(=O)n(CC)c6ccccc65)cc4)o3)cc2)c2ccccc21` (stereo partly drawn) [JR-10, (2S,2′S)-N,N′-(2,5-oxazolediyldi-4,1-phenylene)bis[1-[2-(3-ethyl-2,3-dihydro-2-oxo-1H-benzimidazol-1-yl)-1-oxopropyl]-2-pyrrolidinecarboxamide]]: the EC50 under setting [3] was 1000 to 10000 nM.

Consider `CC(=O)N1CCC[C@H]1C(=O)Nc1ccc(-c2ncc(-c3ccc(NC(=O)[C@@H]4CCCN4C(=O)Cc4ccccc4)cc3)o2)cc1` [MS-6, (2S)-1-acetyl-N-(4-(5-(4-((((2S)-1-(phenylacetyl)-2-pyrrolidinyl)carbonyl)amino)phenyl)-1,3-oxazol-2-yl)phenyl)-2-pyrrolidinecarboxamide], for which the EC50 by setting is: under setting [1], 100 to 999 nM; under setting [4], 188 nM.

With `CC(=O)N1CCC[C@H]1C(=O)Nc1ccc(-c2cnc(-c3ccc(NC(=O)[C@@H]4C=CCN4C(=O)c4cccs4)cc3)o2)cc1` [MS-7, (2S)-N-[4-[5-[4-[[[(2S)-1-acetyl-2-pyrrolidinyl]carbonyl]amino]phenyl]-2-oxazolyl]phenyl]-2,5-dihydro-1-(2-thienylcarbonyl)-1H-pyrrole-2-carboxamide], the EC50 under setting [1] lay in the range of 1000 to 10000 nM.

On to `CN(C)C(C(=O)N1CCC[C@H]1C(=O)Nc1ccc(-c2cnc(-c3ccc(NC(=O)[C@@H]4CCCN4C(=O)C(c4ccc(F)cc4F)N(C)C)cc3)o2)cc1)c1ccc(F)cc1F` (stereo partly drawn) [Example D-5, (2S,2′S)-N,N′-(2,5-oxazolediyldi-4,1-phenylene)bis[1-[(2,4-difluorophenyl)(dimethylamino)acetyl]-2-pyrrolidinecarboxamide]], for which, under setting [1], the EC50 is below 4.57 nM.

For the molecule `CC(O)(C(=O)N1CCC[C@H]1C(=O)Nc1ccc(-c2ccc(-c3ccc(NC(=O)[C@@H]4CCCN4C(=O)[C@@](C)(O)c4ccccc4)cc3)o2)cc1)c1ccccc1` (stereo partly drawn) [JG-59, (2S)-1-((2S)-2-hydroxy-2-phenylpropanoyl)-N-(4-(5-(4-((((2S)-1-(2-hydroxy-2-phenylpropanoyl)-2-pyrrolidinyl)carbonyl)amino)phenyl)-2-furyl)phenyl)-2-pyrrolidinecarboxamide], the EC50 under setting [1] is below 4.57 nM.

Regarding `O=C(Nc1ccc(-c2cnc(-c3ccc(NC(=O)[C@@H]4C[C@@H](O)CN4C(=O)C4CC4)cc3)o2)cc1)[C@@H]1C[C@@H](O)CN1C(=O)C1CC1` [XY-57, (2S,4R,2′S,4′R)-N,N′-(1,3-oxazole-2,5-diyldi-4,1-phenylene)bis(1-(cyclopropylcarbonyl)-4-hydroxy-2-pyrrolidinecarboxamide)], the EC50 under setting [3] was in the range of 1000 to 10000 nM.

For the molecule `COc1cccc(CC(=O)N2C[C@H](OC(C)(C)C)C[C@H]2C(=O)Nc2ccc(-c3cnc(-c4ccc(NC(=O)[C@@H]5C[C@@H](OC(C)(C)C)CN5C(=O)Cc5cccc(OC)c5)cc4)o3)cc2)c1` [XY-77, (2S,4R,2′S,4′R)-N,N′-(1,3-oxazole-2,5-diyldi-4,1-phenylene)bis(4-tert-butoxy-1-((3-methoxyphenyl)acetyl)-2-pyrrolidinecarboxamide)], under setting [3], the EC50 was 100 to 999 nM.

`CO[C@H]1C[C@@H](C(=O)Nc2ccc(-c3cnc(-c4ccc(NC(=O)[C@@H]5C[C@H](OC)CN5C(=O)[C@H](O)c5ccccc5)cc4)o3)cc2)N(C(=O)[C@H](O)c2ccccc2)C1` [OL-58, (2S,4S,2′S,4′S)-N,N′-(1,3-oxazole-2,5-diyldi-4,1-phenylene)bis(1-((2R)-2-hydroxy-2-phenylacetyl)-4-methoxy-2-pyrrolidinecarboxamide)]: the EC50 under setting [1] was below 4.57 nM.

Consider `CN(C)[C@@H](C(=O)N1CCCC1(C)C(=O)N1CCC[C@H]1C(=O)Nc1ccc(-c2cnc(-c3ccc(NC(=O)[C@@H]4CCCN4C(=O)C4(C)CCCN4C(=O)[C@@H](c4ccccc4)N(C)C)cc3)o2)cc1)c1ccccc1` (stereo partly drawn) [Example D-41, (2S,2′S)-N,N′-(1,3-oxazole-2,5-diyldi-4,1-phenylene)bis(1-((1-((2R)-2-(dimethylamino)-2-phenylacetyl)-2-methyl-2-pyrrolidinyl)carbonyl)-2-pyrrolidinecarboxamide)], for which, under setting [1], the EC50 was in the range of 100 to 999 nM.

As to `O=C(O)CCC(=O)N1CCC[C@H]1C(=O)Nc1ccc(-c2cnc(-c3ccc(NC(=O)[C@@H]4CCCN4C(=O)CCC(=O)O)cc3)o2)cc1` [XY-13, 4,4′-(1,3-oxazole-2,5-diylbis(4,1-phenylenecarbamoyl(2S)-2,1-pyrrolidinediyl))bis(4-oxobutanoic acid)], the EC50 under setting [2] lay in the range of 1000 to 10000 nM and the EC50 (read-out: EC50 1b) is 4540 nM.

Regarding `CC(=O)N1CCC[C@H]1C(=O)Nc1ccc(-c2ccc(-c3ccc(NC(=O)[C@@H]4CCCN4C(C)=O)cc3)s2)cc1` [OL-24, (2S,2′S)-N,N′-(2,5-thienediyldi-4,1-phenylene)bis[1-acetyl-2-pyrrolidinecarboxamide]], the EC50 was 100 to 999 nM under setting [1] and 620 nM under setting [4].

For `O=C(C(=O)N1CCC[C@H]1C(=O)Nc1ccc(-c2cc(-c3ccc(NC(=O)[C@@H]4CCCN4C(=O)C(=O)c4ccccc4)cc3)[nH]n2)cc1)c1ccccc1` [JG-31, (2S,2′S)-N,N′-(1H-pyrazole-3,5-diyldi-4,1-phenylene)bis(1-(oxo(phenyl)acetyl)-2-pyrrolidinecarboxamide)], the EC50 under setting [1] was 4.57 to 99 nM.

With `CC(=O)N1CCC[C@H]1C(=O)Nc1ccc(-c2cnc(-c3ccc(NC(=O)C4CC(=O)N(CCc5cccs5)C4)cc3)o2)cc1` (stereo partly drawn) [MS-5, (2S)-1-acetyl-N-[4-[2-[4-[[[5-oxo-1-[2-(2-thienyl)ethyl]-3-pyrrolidinyl]carbonyl]amino]phenyl]-5-oxazolyl]phenyl]-2-pyrrolidinecarboxamide], under setting [1], the EC50 lay in the range of 100 to 999 nM.

Usually EC50 stands for the concentration giving half of the maximal effect.
